Data published in patent publication US4895842A, “Phenylalanine derivative and proteinase inhibitor” (Shosuke Okamoto, priority 1985, dated 1990).
pIC50: −log10 of the molar value. Counter-ions that a name gives are not always drawn. Like-named read-outs stand apart in the source and are kept apart here.

Legend:
human plasmin [1] = target: T1, human plasmin (Homo sapiens, UniProt P00747); assay: biochemical; settings: read-out: Plasmin S-2251 (I50)
Protocol: An inhibitor sample is dissolved in a 0.05M Tris-hydrochloric acid buffer solution (pH=7.4) to make the total volume of 400 μl. […] Then, 50 μl of a 0.2 casein unit/ml human plasmin is added and the mixture is incubated at a temperature of 37° C. for 4 minutes. Thereafter, the reaction is stopped by adding 50 μl of 50% acetic acid.
Thus, the concentration I50 (μmol) of the inhibitor sample, at which the absorbance is one half (i.e., 1/2) of that obtained in the absence of the inhibitor, is determined.

human plasmin [2] = target: T1, human plasmin; assay: Antiplasmin activity: inhibition of fibrin decomposition; type: biochemical; settings: read-out: Plasmin Fibrin (I50)
Protocol: (i) Determination of inhibition activity for fibrin decomposition
An inhibitor sample is dissolved in a 0.18M borate-physiological salt buffer solution (pH=7.4) to make the total volume to 600 μl. To this buffer solution, 200 μl of a 0.2% bovine fibrinogen, 100 μl of a 0.3 casein unit/ml human plasmin solution, and 100 μl of a 50 unit/ml bovine thrombin solution, all dissolved in the above-mentioned buffer, are added at a temperature of 37° C. in a constant temperature bath. Then, the dissolution time of the fibrin mass formed above is determined.

bovine thrombin [3] = target: T2, bovine thrombin (Bos taurus, UniProt P00735); assay: Antithrombin activity: inhibition of S-2238 decomposition; type: biochemical
Protocol: (ii) Determination of inhibition activity for S-2238 decomposition
An inhibitor sample is dissolved in a 0.05M Tris-hydrochloric acid buffer solution (pH=8.3) to make a total volume of 400 μl. To this solution, 50 μl of a 0.2 mM S-2238 solution is added and the mixture is incubated at a temperature of 37° C. for 5 minutes in a constant temperature bath. Then, 50 μl of a 0.2 unit/ml bovine thrombin solution is added thereto and the absorbance, at 405 nm, of the p-nitroaniline formed per minute is determined at a temperature of 37° C. by using the so-called initial velocity method. Thus, the concentration I50 (μmol) of the inhibitor sample at which the absorbance is one half (i.e., 1/2) of that obtained in the absence of the inhibitor sample, is determined.

bovine thrombin [4] = target: T2, bovine thrombin; assay: Antithrombin activity: inhibition of fibrin formation from fibrinogen; type: biochemical
Protocol: (i) Determination of inhibition activity against fibrin formation
An inhibitor sample is dissolved in a 0.18M borate-physiological salt buffer solution (pH=7.4) to make the total volume to 500 μl. To this solution, 400 μl of a 0.2% bovine fibrinogen solution and 100 μl of a 4 unit/ml bovine thrombin solution are added at a temperature of 37° C. in a constant temperature bath. Thus, a coagulation time is determined. The inhibitor concentration I50 (μmol), at which the coagulation time obtained in the absence of the inhibitor is extended twice, is determined.

bovine trypsin = target: T3, bovine trypsin (Bos taurus, UniProt P00760); assay: Antitrypsin activity: inhibition of S-2238 decomposition; type: biochemical
T3 sequence (P00760 24-246): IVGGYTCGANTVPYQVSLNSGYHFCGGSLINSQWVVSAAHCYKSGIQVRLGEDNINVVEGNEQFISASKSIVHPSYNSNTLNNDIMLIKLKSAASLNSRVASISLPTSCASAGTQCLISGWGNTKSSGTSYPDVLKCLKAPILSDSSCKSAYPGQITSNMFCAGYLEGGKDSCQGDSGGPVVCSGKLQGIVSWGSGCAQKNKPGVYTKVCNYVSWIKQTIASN
Protocol: Determination of inhibition activity against S-2238 decomposition
An inhibitor sample is dissolved in a 0.05M Tris-imidazole buffer solution (pH=8.1) and 125 μl of a 1 mM S-2238 solution is added to make the total volume to 1.20 ml. The mixture is incubated at a temperature of 37° C. for 5 minutes in a constant temperature bath. To this mixture, 0.05 ml of bovine trypsin is added and the absorbance, at 405 nm, of the p-nitroaniline formed per minute is determined at a temperature of 37° C. by using the so-called initial velocity method. Thus, the concentration I50 (μmol) of the inhibitor sample, at which the absorbance is one half (i.e., 1/2) of that obtained in the absence of the inhibitor sample, is determined.

human plasma kallikrein = human plasma kallikrein (Homo sapiens, UniProt P03952); assay: Anti-plasma kallikrein activity: inhibition of S-2302 decomposition; type: biochemical
Chain of human plasma kallikrein (P03952 391-638 limits assumed): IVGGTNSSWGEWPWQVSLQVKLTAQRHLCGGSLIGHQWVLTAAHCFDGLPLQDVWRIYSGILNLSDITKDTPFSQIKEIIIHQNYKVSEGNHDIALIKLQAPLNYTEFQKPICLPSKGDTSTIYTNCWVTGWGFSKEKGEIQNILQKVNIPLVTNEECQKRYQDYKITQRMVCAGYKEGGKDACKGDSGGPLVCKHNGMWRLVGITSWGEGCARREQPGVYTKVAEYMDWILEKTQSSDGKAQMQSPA
Chain of human plasma kallikrein (P03952 20-390 partner limits assumed): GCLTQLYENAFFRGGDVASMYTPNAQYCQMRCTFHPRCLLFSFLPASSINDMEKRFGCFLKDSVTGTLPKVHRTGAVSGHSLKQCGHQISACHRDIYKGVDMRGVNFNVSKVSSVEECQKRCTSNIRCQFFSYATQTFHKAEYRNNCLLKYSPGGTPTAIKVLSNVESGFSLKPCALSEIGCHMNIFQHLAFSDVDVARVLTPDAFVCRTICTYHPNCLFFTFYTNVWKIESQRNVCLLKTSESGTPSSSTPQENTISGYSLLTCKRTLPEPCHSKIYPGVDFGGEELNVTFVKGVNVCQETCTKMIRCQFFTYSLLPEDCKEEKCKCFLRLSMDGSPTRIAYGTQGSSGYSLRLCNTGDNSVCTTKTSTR
Protocol: Determination of inhibition activity for S-2302 decomposition
An inhibitor sample is dissolved in a 0.05M Tris-hydrochloric acid buffer solution (pH=7.8) to make the total volume to 400 μl. To this solution, 50 μl of a 2 mM S-2302 solution is added and the mixture is incubated at a temperature of 37° C. for 5 minutes in a constant temperature bath. Then, 50 μl of a 0.12 unit/ml human plasma kallikrein is added and the mixture is incubated at a temperature of 37° C. for 5 minutes. Thereafter, 50 μl of 50% acetic acid is added to terminate the reaction. The absorbance of the p-nitroaniline formed in the reaction mixture is measured at 405 nm. Thus, the concentration I50 (μmol) of the inhibitor sample, at which the absorbance is one half (i.e., 1/2) of that obtained in the absence of the inhibitor sample, is determined.

human urokinase = human urokinase (Homo sapiens, UniProt P00749); assay: biochemical
Protocol: Determination of inhibition activity for S-2444 decomposition
An inhibitor sample is dissolved in a 0.05M Tris-hydrochloric acid buffer solution (pH=8.8) to make the total volume to 400 μl. To this solution, 50 μl of a 1 mM S-2444 solution is added and the mixture is incubated at a temperature of 37° C. for 5 minutes in a constant temperature bath. Then, 50 μl of a 500 unit/ml human urokinase is added and the mixture is incubated at a temperature of 37° C. for 5 minutes. Thereafter, 50 μl of 50% acetic acid is added to terminate the reaction. The absorbance of the p-nitroaniline formed in the reaction mixture is measured at 405 nm. Thus, the concentration I50 (μmol) of the inhibitor sample, at which the absorbance is one half (i.e., 1/2) of that obtained in the absence of the inhibitor sample, is determined.

[5] = Table 2, concentration at which fibrin dissolution time is extended twice, pH 7.4, 37° C.
[6] = Table 2, S-2238 substrate, pH 8.3, 37° C., read-out: Thrombin S-2238 (I50)
[7] = Table 2, S-2238 substrate, pH 8.1, 37° C., read-out: Trypsin S-2238 (I50)
[8] = Table 2, S-2302 substrate, pH 7.8, 37° C., read-out: Plasma Kallikrein S-2302 (I50)
[9] = Table 2, S-2444 substrate, pH 8.8, 37° C., read-out: Urokinase S-2444 (I50)
[10] = Table 4, comparative compounds of Table 3, S-2251 substrate, pH 7.4, 37° C.
[11] = Table 4, comparative compounds of Table 3, fibrin dissolution time extended twice
[12] = Table 4, comparative compounds of Table 3, S-2238 substrate, pH 8.3, read-out: Thrombin S-2238 (I50)
[13] = Table 4, comparative compounds of Table 3, coagulation time extended twice, read-out: Thrombin Fibrinogen (I50)

T1 sequence (P00747 581-810 limits assumed): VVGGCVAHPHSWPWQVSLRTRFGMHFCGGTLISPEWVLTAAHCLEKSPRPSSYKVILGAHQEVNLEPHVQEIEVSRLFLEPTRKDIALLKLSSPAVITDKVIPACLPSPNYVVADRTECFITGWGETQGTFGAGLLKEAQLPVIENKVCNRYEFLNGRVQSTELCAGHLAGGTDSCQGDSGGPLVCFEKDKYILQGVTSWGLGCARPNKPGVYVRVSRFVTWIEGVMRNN
T1 sequence (P00747 97-580 partner limits assumed): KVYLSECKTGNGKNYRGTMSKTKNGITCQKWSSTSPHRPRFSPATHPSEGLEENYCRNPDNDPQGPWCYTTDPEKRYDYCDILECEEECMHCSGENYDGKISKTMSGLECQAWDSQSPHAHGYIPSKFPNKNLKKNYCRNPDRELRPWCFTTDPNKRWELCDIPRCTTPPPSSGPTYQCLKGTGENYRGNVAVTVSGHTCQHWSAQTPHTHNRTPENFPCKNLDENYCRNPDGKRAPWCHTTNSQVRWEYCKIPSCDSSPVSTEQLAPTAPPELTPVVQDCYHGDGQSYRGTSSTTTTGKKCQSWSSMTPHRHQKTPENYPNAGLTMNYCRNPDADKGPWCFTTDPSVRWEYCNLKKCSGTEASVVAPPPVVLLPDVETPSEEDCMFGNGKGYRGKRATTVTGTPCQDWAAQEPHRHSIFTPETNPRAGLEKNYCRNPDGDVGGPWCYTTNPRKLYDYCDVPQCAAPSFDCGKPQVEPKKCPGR

SMILES | pIC50 (human plasmin [1]) | pIC50 (human plasmin [2]; [5]) | pIC50 (bovine thrombin [3]; [6]) | pIC50 (bovine thrombin [4]) | pIC50 (bovine trypsin; [7]) | pIC50 (human plasma kallikrein; [8]) | pIC50 (human urokinase; [9]) | pIC50 (bovine trypsin; Table 4, comparative compounds of Table 3, S-2238 substrate, pH 8.1, read-out: Trypsin S-2238 (I50)) | pIC50 (human plasma kallikrein; Table 4, comparative compounds of Table 3, S-2302 substrate, pH 7.8, read-out: Plasma Kallikrein S-2302 (I50)) | pIC50 (human urokinase; Table 4, comparative compounds of Table 3, S-2444 substrate, pH 8.8, read-out: Urokinase S-2444 (I50)) | pIC50 (bovine thrombin [3]) | pIC50 (human plasmin [1]; [10]) | pIC50 (human plasmin [2]; [11]) | pIC50 (bovine thrombin [3]; [12]) | pIC50 (bovine thrombin [4]; [13]) | pIC50 (bovine trypsin) | pIC50 (human plasma kallikrein) | pIC50 (human urokinase)
CC(=O)c1ccc(NC(=O)[C@H](Cc2ccc(Oc3ccc([N+](=O)[O-])cn3)cc2)NC(=O)[C@H]2CC[C@H](CN)CC2)cc1 [Compound No. 121, N-(trans-4-aminomethylcyclohexylcarbonyl)-4-(5-nitro-2-pyridyloxy)-L-phenylalanine 4-acetylanilide hydrochloride] | 6.02 | 6.37 | 3.55 | < 3.70 | 6.62 | 6.74 | 4.72 | – | – | – | – | – | – | – | – | – | – | –
NCc1ccc(C(=O)NC(Cc2ccccc2)C(=O)N2CCCCC2)cc1 (stereo not drawn) [Table 3 Compound No. 3, reference compound] | – | – | – | – | – | – | – | < 3.52 | < 3.00 | < 3.00 | – | < 3.00 | < 3.00 | < 3.00 | < 3.00 | – | – | –
CC(=O)NC(Cc1ccc([N+](=O)[O-])cc1)C(=O)Nc1ccc([N+](=O)[O-])cc1 (stereo not drawn) [Table 3 Compound No. 4, reference compound] | – | – | – | – | – | – | – | – | – | – | – | < 4.00 | < 4.00 | < 4.00 | < 4.00 | < 3.82 | < 4.00 | < 4.00
CSc1ccc(NC(=O)[C@H](Cc2ccc(OCc3ccccc3)cc2)NC(=O)[C@H]2CC[C@H](CN)CC2)cc1 [compound 29] | 5.51 | 6.46 | < 4.30 | < 4.60 | 5.51 | 5.96 | 3.48 | – | – | – | – | – | – | – | – | – | – | –
NC[C@H]1CC[C@H](C(=O)N[C@@H](Cc2ccc(OCc3ccccc3)cc2)C(=O)Nc2cccc(Cl)c2)CC1 [compound 36] | 5.77 | 6.39 | – | < 4.30 | 6.09 | 5.92 | 4.00 | – | – | – | < 3.90 | – | – | – | – | – | – | –
NC[C@H]1CC[C@H](C(=O)N[C@@H](Cc2ccc(OCc3ccccc3)cc2)C(=O)Nc2cccc([N+](=O)[O-])c2)CC1 [compound 44] | 5.42 | 6.02 | < 3.30 | < 4.00 | 5.96 | 5.92 | 4.22 | – | – | – | – | – | – | – | – | – | – | –
CC(=O)c1ccc(NC(=O)[C@H](Cc2ccc(OCc3cccc(C(F)(F)F)c3)cc2)NC(=O)[C@H]2CC[C@H](CN)CC2)cc1 [compound 55] | 5.92 | 6.54 | < 3.90 | < 4.30 | 5.59 | 6.38 | 4.24 | – | – | – | – | – | – | – | – | – | – | –
CC(=O)c1ccc(NC(=O)[C@H](Cc2ccc(OCc3cccc(F)c3)cc2)NC(=O)[C@H]2CC[C@H](CN)CC2)cc1 [compound 56] | 5.72 | 6.54 | 3.30 | < 4.00 | 5.92 | 6.12 | 4.34 | – | – | – | – | – | – | – | – | – | – | –
C=CCOc1ccc(C[C@H](NC(=O)[C@H]2CC[C@H](CN)CC2)C(=O)Nc2ccc(C(C)=O)cc2)cc1 [compound 57] | 5.34 | 5.48 | 3.14 | < 3.30 | 6.14 | 5.85 | 4.35 | – | – | – | – | – | – | – | – | – | – | –
Cc1ccc(NC(=O)[C@H](Cc2ccc(OCc3ccccc3)cc2)NC(=O)[C@H]2CC[C@H](CN)CC2)cc1C [compound 58] | 5.47 | 6.14 | < 3.90 | < 4.30 | 5.89 | 5.55 | < 3.82 | – | – | – | – | – | – | – | – | – | – | –

Continued by rising pIC50 (human plasmin [1]), values first:

pIC50 (human plasmin [1]) | pIC50 (human plasmin [2]; [5]) | pIC50 (bovine thrombin [3]; [6]) | pIC50 (bovine thrombin [4]) | pIC50 (bovine trypsin; [7]) | pIC50 (human plasma kallikrein; [8]) | pIC50 (human urokinase; [9]) | pIC50 (bovine trypsin; Table 4, comparative compounds of Table 3, S-2238 substrate, pH 8.1, read-out: Trypsin S-2238 (I50)) | pIC50 (human plasma kallikrein; Table 4, comparative compounds of Table 3, S-2302 substrate, pH 7.8, read-out: Plasma Kallikrein S-2302 (I50)) | pIC50 (human urokinase; Table 4, comparative compounds of Table 3, S-2444 substrate, pH 8.8, read-out: Urokinase S-2444 (I50)) | pIC50 (bovine thrombin [3]) | SMILES | pIC50 (human plasmin [1]; [10]) | pIC50 (human plasmin [2]; [11]) | pIC50 (bovine thrombin [3]; [12]) | pIC50 (bovine thrombin [4]; [13]) | pIC50 (bovine trypsin) | pIC50 (human plasma kallikrein) | pIC50 (human urokinase)
4.89 | 4.92 | < 3.70 | < 3.70 | 6.28 | 5.07 | 4.96 | – | – | – | – | NC[C@H]1CC[C@H](C(=O)NC(Cc2ccc(N)cc2)C(=O)Nc2ccc(C(=O)c3ccccc3)cc2)CC1 (stereo partly drawn) [compound 33] | – | – | – | – | – | – | –
5.28 | 5.47 | – | < 4.00 | 4.66 | < 4.00 | < 3.70 | – | – | – | < 3.70 | NC[C@H]1CC[C@H](C(=O)N[C@@H](Cc2ccc(OCc3ccccc3)cc2)C(=O)N2CCC(C(=O)c3ccccc3)CC2)CC1 [compound 48] | – | – | – | – | – | – | –
5.64 | 6.39 | < 4.30 | < 4.30 | 5.60 | 4.22 | < 3.40 | – | – | – | – | CC1CCC(NC(=O)[C@H](Cc2ccc(OCc3ccccc3)cc2)NC(=O)c2ccc(CN)cc2)CC1 (stereo partly drawn) [compound 38] | – | – | – | – | – | – | –
5.74 | 6.24 | < 3.70 | < 4.00 | 5.62 | 5.08 | < 3.30 | – | – | – | – | NCc1ccc(C(=O)N[C@@H](Cc2ccc(OCc3ccccc3)cc2)C(=O)NC2CC3CCC2C3)cc1 (stereo partly drawn) [compound 62] | – | – | – | – | – | – | –
5.85 | 6.02 | 3.55 | < 4.30 | 6.00 | 6.43 | 4.10 | – | – | – | – | CC(=O)c1ccc(NC(=O)[C@H](Cc2ccc(OCC(=O)c3ccccc3)cc2)NC(=O)[C@H]2CC[C@H](CN)CC2)cc1 [compound 30] | – | – | – | – | – | – | –
5.96 | 6.51 | < 3.70 | < 4.30 | 6.00 | 6.37 | 4.47 | – | – | – | – | CC(=O)c1ccc(NC(=O)[C@H](Cc2ccc(OCc3cccc(C#N)c3)cc2)NC(=O)[C@H]2CC[C@H](CN)CC2)cc1 [Compound No. 122, N-(trans-4-aminomethylcyclohexylcarbonyl)-4-(3-cyanobenzyloxy)-L-phenylalanine 4-acetylanilide hydrochloride] | – | – | – | – | – | – | –
6.00 | 6.72 | < 3.70 | < 4.00 | 6.00 | 6.35 | 4.46 | – | – | – | – | CC(=O)c1ccc(NC(=O)[C@H](Cc2ccc(OCc3cccc([N+](=O)[O-])c3)cc2)NC(=O)[C@H]2CC[C@H](CN)CC2)cc1 [compound 54] | – | – | – | – | – | – | –
6.05 | 6.24 | < 3.40 | < 3.70 | 5.92 | 6.18 | 4.43 | – | – | – | – | NC[C@H]1CC[C@H](C(=O)N[C@@H](Cc2ccc(Oc3cc(Cl)ccc3[N+](=O)[O-])cc2)C(=O)Nc2ccncc2)CC1 [Compound No. 137, N-(trans-4-aminomethylcyclohexylcarbonyl)-4-(3-chloro-6-nitrophenoxy)-L-phenylalanine 4-pyridylamide dihydrochloride] | – | – | – | – | – | – | –
